In PubChem BioAssay (NCI):
Where “and” joins values, the source holds several entries; their conditions need not be identical. Equal entries are not always repeated.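 1) Cells in 96-well plates. 2) Compound, 48 h, 5 concentrations. 3) Linear interpolation between surrounding doses. 4) Unreached endpoint = highest concentration. At the GI50, growth is halved. TGI: total growth inhibition.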

Assays:
Experiment in all cases: DTP human tumour cell line panel, 48 h
[1] = tested on: NCI-H522 lung
[2] = tested on: EKVX NSCLC
[3] = tested on: NCI-H226 lung
[4] = tested on: TK-10 renal
[5] = tested on: SK-MEL-5 melanoma
[6] = tested on: SNB-75 CNS
[7] = tested on: HCT-15 colon
[8] = tested on: K-562 leukemia
[9] = tested on: CCRF-CEM leukemia
[10] = tested on: NCI-H460 lung

Row | Compound | TGI [1] | TGI [2] | TGI [3] [µM] | TGI [4] [µM] | TGI [5] [µM] | TGI [6] | TGI [7] | TGI [8] [µM] | TGI [9] | TGI [10] | GI50 [1] [µM] | GI50 [2] | GI50 [3] | GI50 [4] | GI50 [5] | GI50 [6] | GI50 [7] | GI50 [8] | GI50 [9] | GI50 [10]
1 | CCOC(OC1=C(C#N)CCC1)C(CC)[Se]c1ccccc1 (stereo not drawn) | 26.8 µM | 89 µM | 53.4 | > 100 | 31.6 | 64.2 µM | > 100 µM | > 100 | > 100 µM | > 100 µM |  |  |  |  |  |  |  |  |  | 
2 | Cc1ccc(-c2cc3nc(-c4ccccc4)nc(C(Cl)Cl)n3n2)cc1 | > 50 µM | 1.51 µM | > 50 | 1.8 | > 50 | 1.04 µM | 3.13 µM | > 50 | > 50 µM | 1.42 µM | > 50 | 0.752 µM | > 50 µM | 0.944 µM | > 50 µM | 0.295 µM | 0.958 µM | 1.76 µM | > 50 µM | 0.45 µM
3 | CC[C@@]1(OC(=O)CCC(=O)O)C(=O)OCc2c1cc1n(c2=O)Cc2cc3ccccc3nc2-1 | 3.72 µM | > 100 µM | 3.13 | 57.5 | 0.373 | 2.54 µM | 11.7 µM | > 61.8 | 0.127 µM | 0.592 µM |  |  |  |  |  |  |  |  |  | 
4 | Cc1ccc2c(c1)sc(-c1ccc(N(C)C)cc1)[n+]2C | > 100 µM | > 100 µM | > 100 | 11.2 | 1.8 | 34.8 µM | > 100 µM | > 50.3 | > 62.5 µM | 8.25 µM | 1.45 | 0.379 µM | 3.26 µM | 1.99 µM | 0.39 µM | 4.55 µM | 18.8 µM | 0.242 µM | 1.98 µM | 1.18 µM
5 | Cn1cnc([N+](=O)[O-])c1Sc1ncnc2nc[nH]c12 | > 100 µM | > 100 µM | > 100 | > 100 | > 100 | 17.1 µM and > 100 µM | > 100 µM | > 100 | > 100 µM | > 100 µM | 7.56 | 28.3 µM and > 100 µM | 7.17 µM and > 27.2 µM | 3.58 µM and 3.93 µM | 12.1 µM and 14.4 µM | 0.461 µM and 3.03 µM | 14.2 µM and 19.6 µM | 2.49 µM and 1.3 µM | 3.64 µM and 5.1 µM | 6.58 µM and 16.5 µM
6 | CCOC(=O)c1c2ccc(/C=C/C(=O)OC)ccc-2c(C(=O)OCC)c1N | > 100 µM | > 100 µM | > 100 | > 100 | > 100 | > 100 µM | > 100 µM | > 100 | > 100 µM | > 100 µM |  |  |  |  |  |  |  |  |  | 
7 | O=Nc1c2cccnc2n2nnc3ccc(Cl)cc3c12 | 3.38 µM | 19.6 µM | 21 | 7.6 | 14.5 | 11.4 µM | 5.75 µM | 6.66 | 2.76 µM | 7.8 µM | 1.14 | 3.59 µM | 4.96 µM | 1.66 µM | 5.73 µM | 3.19 µM | 0.94 µM | 0.239 µM | 0.0452 µM | 2.11 µM
8 | CCOC(=O)/C(C1=CC(=O)C(=O)c2ccccc21)=C(/C)NCc1ccccc1 |  | 5.06 µM | 6.38 | 3.51 | 3.38 | 55.5 µM | 3.6 µM | 3.24 | 0.0649 µM | 12 µM | 1.22 | 2.33 µM | 2.62 µM | 1.72 µM | 1.78 µM | 3.11 µM | 1.75 µM | 1.3 µM | 0.0144 µM | 3.23 µM
9 | O=C1NC(=O)C(c2ccccc2Cl)=C1Nc1cccc(O)c1 | > 25 µM | > 25 µM | > 25 | > 25 | > 25 | > 20.2 µM | > 25 µM | > 25 | > 25 µM | > 25 µM | 2.17 | > 22.5 µM | 6.19 µM | 10.7 µM | 1.67 µM | 6.76 µM | 2.47 µM | 1.32 µM | 7.05 µM | 7.12 µM
10 | OCCCNCc1ccccn1 | > 100 µM | > 100 µM | > 100 | > 100 | > 100 | > 100 µM | > 100 µM | > 100 | > 100 µM | > 100 µM |  |  |  |  |  |  |  |  |  | 
11 | CC(=O)O/C(C)=C\C(=O)O/N=C(\N)c1ccc(C)cc1 | 49.1 µM | > 100 µM | 92.9 | > 100 | 58.5 | 61 µM |  | 52.1 | 41.5 µM | > 100 µM |  |  |  |  |  |  |  |  |  | 
12 | O=C1OCC2=Nc3cccc4cccc(c34)N12 | > 100 µM | > 100 µM | > 100 | > 100 | > 100 | > 100 µM | > 100 µM | > 100 | > 100 µM | > 100 µM |  |  |  |  |  |  |  |  |  | 
13 | CC1=C(N2CC2)C(=O)c2nc3n(c2C1=O)CCC3O (stereo not drawn) | 0.262 µM | 1.13 µM | 2.14 | 0.285 | 0.0562 | 1.23 µM | 29.6 µM | 5.06 | 13.4 µM | 0.324 µM |  |  |  |  |  |  |  |  |  | 
14 | Cc1ccc(-n2c(C)nc3c2C(=O)c2ccccc2C3=O)cc1 | > 100 µM | > 100 µM | > 100 | > 100 | > 100 | > 100 µM | > 100 µM | > 100 | > 100 µM | 19.5 µM |  |  |  |  |  |  |  |  |  | 
15 | Cc1cc(O)cc(C)c1/C=C/c1cncc(C(=O)N(C)C)c1 | > 25 µM | > 25 µM | > 25 | > 25 | > 25 | > 25 µM | > 25 µM | > 25 | > 25 µM | > 25 µM | > 25 | > 25 µM | > 25 µM | > 25 µM | > 25 µM | > 13.7 µM | > 25 µM | > 25 µM | > 25 µM | > 25 µM
16 | NC(N)=NNC(=O)C(=O)O | > 100 µM | > 100 µM | > 100 | > 100 | > 100 | > 100 µM | > 100 µM | > 100 | > 100 µM | > 100 µM |  |  |  |  |  |  |  |  |  | 
17 | CCCCS(=N)(=O)CC[C@H](N)C(=O)O (stereo partly drawn) | 351 µM and 51.9 µM | 1720 µM and 3890 µM | > 10000 | > 10000 | > 10000 | 5000 µM and > 10000 µM | 4940 µM and > 10000 µM | > 10000 | 2790 µM and 2140 µM | 5000 µM and > 10000 µM | > 20.5 | 615 µM | > 10000 µM | > 10000 µM | > 10000 µM | > 10000 µM | > 6960 µM | 11.3 µM | 302 µM | > 3940 µM
18 | Cc1ccc(C)c(NC(=O)/C(=N\NC(N)=S)C(C#N)c2ccccc2)c1 (stereo not drawn) | > 100 µM | > 100 µM | > 100 | > 100 | > 100 | > 100 µM | > 100 µM | > 100 | > 100 µM | > 100 µM |  |  |  |  |  |  |  |  |  | 
19 | O=C1Cc2c(-c3ccccc3)cc(-c3cccc(Cl)c3)nc2-c2ccccc2N1 | 5.1 µM | 12.6 µM | 17.7 | 3.62 | > 48.7 | 6.04 µM | 17.6 µM | > 40.3 | 50.9 µM | 3.71 µM |  |  |  |  |  |  |  |  |  | 
20 | CC(SC1=CC(=O)c2c(O)ccc(O)c2C1=O)C(=O)O (stereo not drawn) | 9.79 µM | > 100 µM | > 100 | > 82.2 | > 100 | > 75.9 µM | > 55.3 µM | 40.7 | 14.8 µM | > 100 µM |  |  |  |  |  |  |  |  |  | 
21 | O=C(O)c1[nH]c(C(=O)O)c(CC(F)(F)C(F)(F)C(F)(F)F)c1CC(F)(F)C(F)(F)C(F)(F)F | > 100 µM | > 100 µM | > 100 | > 100 | > 100 | > 100 µM | > 100 µM | > 100 | > 100 µM | > 100 µM |  |  |  |  |  |  |  |  |  | 
22 | CCN(CC)C(=S)SSC1CCCCC1 | 12.7 µM | 91.2 µM | 76.1 | 34.6 | 26.3 | 48 µM | 46.4 µM | 38.8 | 58.6 µM | 52.7 µM | 2.91 | 30.5 µM | 24.7 µM | 18 µM | 12.5 µM | 17.5 µM | 19.7 µM | 11.3 µM | 5.72 µM | 18.3 µM
23 | Cc1cc2occ(C)c(=O)c2c2c1OC(C)(C)S2 | > 100 µM | > 100 µM | > 100 | > 100 | > 100 | > 100 µM | > 100 µM | > 100 | > 100 µM | > 100 µM |  |  |  |  |  |  |  |  |  | 
24 | CCOC(=O)/C=C(/CN1C(=O)c2ccccc2C1=O)c1ccccc1 | > 100 µM | > 100 µM | > 100 | > 100 | > 100 | > 100 µM | > 100 µM | > 100 | > 100 µM | > 100 µM |  |  |  |  |  |  |  |  |  | 
25 | Cc1ccc(S(=O)(=O)NCCN2c3nc4ccccc4cc3Sc3cc4ccccc4nc32)cc1 | > 100 µM | > 100 µM | > 100 | > 100 | > 100 | 7.84 µM | > 100 µM | > 100 | > 100 µM | > 100 µM | 44.4 | > 77 µM | 64.2 µM | 28.6 µM | 5.59 µM | 1.54 µM | > 100 µM | > 100 µM | > 100 µM | > 100 µM
26 | N#C/C(=C(\O)C(=O)O)c1ccc(-c2cccc3ccccc23)cc1 | > 100 µM | > 100 µM | > 100 | > 100 | > 100 | > 100 µM | > 100 µM | > 100 | > 100 µM | > 100 µM |  |  |  |  |  |  |  |  |  | 
